Assays:
Test in all cases: relative viability (nuclei count vs DMSO), 5 days (fraction); higher = more cells survive
[1] = compound: C[C@@]1(C(=O)Nc2ccc(F)nc2)CCCN1c1nc(Nc2cc(C3CC3)n[nH]2)c2cccn2n1 + Nc1nc2[nH]cc(CCc3ccc(C(=O)N[C@@H](CCC(=O)O)C(=O)O)cc3)c2c(=O)[nH]1 [Pemetrexed] (partner 0.2 µM)
Outline: (§1)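 Each reported value is a median over duplicate plates. It expresses relative viability: treated-well nuclei count divided by vehicle-well nuclei count. Lung cancer cell lines in 1536-well plates were dosed by pin tool a day after seeding, alone with one drug or with a fixed anchor-drug dose plus five library-drug doses (not always all listed) in √10 steps, and nuclei were counted after 5 days.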

[2] = compound: C[C@@]1(C(=O)Nc2ccc(F)nc2)CCCN1c1nc(Nc2cc(C3CC3)n[nH]2)c2cccn2n1 + CC1(C)CCC(c2ccc(Cl)cc2)=C(CN2CCN(c3ccc(C(=O)NS(=O)(=O)c4ccc(N[C@H](CCN5CCOCC5)CSc5ccccc5)c(S(=O)(=O)C(F)(F)F)c4)cc3)CC2)C1 [Navitoclax] (partner 0.5 µM)
Outline: as §1

[3] = compound: CC1(C)CNc2cc(NC(=O)c3cccnc3NCc3ccncc3)ccc21 [Motesanib] + Cc1cc(Nc2cc(N3CCN(C)CC3)nc(Sc3ccc(NC(=O)C4CC4)cc3)n2)n[nH]1 [Tozasertib] (partner 0.1 µM)
Outline: as §1

[4] = compound: C[C@@]1(C(=O)Nc2ccc(F)nc2)CCCN1c1nc(Nc2cc(C3CC3)n[nH]2)c2cccn2n1 + C[C@@H](Oc1cc(-c2cnn(C3CCNCC3)c2)cnc1N)c1c(Cl)ccc(F)c1Cl [Crizotinib] (partner 1 µM)
Outline: as §1

Cell Line | relative viability ([1]; first compound 0.04 µM) | relative viability ([1]; first compound 0.1265 µM) | relative viability ([1]; first compound 0.4 µM) | relative viability ([1]; first compound 1.265 µM) | relative viability ([2]; first compound 0.04 µM) | relative viability ([2]; first compound 0.1265 µM) | relative viability ([2]; first compound 0.4 µM) | relative viability ([2]; first compound 1.265 µM) | relative viability ([3]; first compound 0.01 µM) | relative viability ([3]; first compound 0.03162 µM) | relative viability ([3]; first compound 0.1 µM) | relative viability ([3]; first compound 0.3162 µM) | relative viability ([3]; first compound 1 µM) | relative viability ([4]; first compound 0.04 µM) | relative viability ([4]; first compound 0.1265 µM) | relative viability ([4]; first compound 0.4 µM) | relative viability ([4]; first compound 1.265 µM)
COR-L 105 | 1.07 | 0.658 | 0.865 | 1.1 | 0.788 | 0.477 | 0.65 | 0.607 | 0.341 | 0.33 | 0.327 | 0.381 | 0.345 | 0.805 | 0.454 | 0.5 | 0.456
NCI-H1975 | 0.302 | 0.298 | 0.274 | 0.268 | 0.988 | 1.06 | 0.773 | 0.765 | 0.771 | 0.65 | 0.773 | 0.711 | 0.648 | 0.962 | 0.929 | 0.899 | 0.486
NCI-H1993 | 0.496 | 0.488 | 0.462 | 0.474 | 0.692 | – | 0.671 | 0.716 | 0.603 | 0.614 | 0.552 | 0.501 | 0.605 | 0.663 | – | 0.64 | 0.633
RERF-LC-KJ | 0.467 | 0.421 | 0.438 | 0.436 | 0.842 | 0.579 | 0.846 | 0.592 | 0.536 | 0.478 | 0.527 | 0.501 | 0.505 | 0.874 | 0.733 | 0.732 | 0.801
NCI-H23 | 0.506 | 0.437 | 0.399 | 0.312 | 0.658 | 0.587 | 0.444 | 0.664 | 0.346 | 0.31 | 0.341 | 0.363 | 0.333 | 0.49 | 0.292 | 0.2 | 0.35
HCC-366 | 0.21 | 0.245 | 0.212 | 0.163 | 1.12 | 0.966 | 0.688 | 1.19 | 0.124 | 0.115 | 0.126 | 0.139 | 0.0819 | 0.612 | 0.442 | 0.388 | 0.0918
EMC-BAC-2 | 0.454 | 0.42 | 0.471 | 0.439 | 1.13 | 1.12 | 0.947 | 1.22 | 0.286 | 0.238 | 0.351 | 0.309 | 0.281 | 0.675 | 0.697 | 0.66 | 0.816
NCI-H2405 | 0.8 | 0.905 | 0.819 | 0.614 | 0.813 | 0.635 | 0.584 | 0.597 | – | 0.602 | 0.814 | 0.769 | 0.784 | 0.862 | 0.759 | 0.649 | 0.889
NCI-H1944 | 0.605 | 0.554 | 0.497 | 0.544 | 0.991 | 0.947 | 0.981 | 1.08 | 0.258 | 0.229 | 0.233 | 0.236 | 0.284 | 0.981 | 1.03 | 0.875 | 1.17
EPLC-272H | 0.358 | 0.291 | 0.349 | 0.23 | 1.07 | 1.04 | 1.07 | 1.21 | 0.293 | 0.234 | – | 0.253 | 0.253 | 0.977 | 0.857 | 0.676 | 1.16
NCI-H1915 | 0.52 | 0.46 | 0.48 | 0.529 | 0.774 | 0.767 | 0.836 | 0.779 | 0.401 | 0.408 | 0.478 | 0.456 | 0.434 | 0.932 | 0.874 | 0.898 | 0.952
NCI-H596 | 0.494 | 0.497 | 0.431 | 0.487 | 1.01 | 0.809 | 0.921 | 1.09 | 0.917 | 1.27 | 1.04 | 0.843 | 1.01 | 1.05 | 0.984 | 0.857 | 1.06
NCI-H322M | 0.63 | 0.525 | 0.52 | 0.537 | 1.27 | 1 | 1.07 | 1.19 | 0.494 | 0.442 | 0.502 | 0.485 | 0.447 | 1.04 | 0.75 | 0.613 | 1.15
NCI-H2228 | 0.388 | 0.355 | 0.317 | 0.286 | 0.561 | 0.762 | 0.723 | 0.633 | 0.355 | 0.184 | 0.289 | 0.272 | 0.251 | 0.395 | 0.342 | 0.262 | 0.255
NCI-H647 | 0.174 | 0.163 | 0.174 | 0.123 | 1.1 | 0.989 | 0.894 | 1.14 | 0.304 | 0.239 | 0.285 | 0.404 | 0.359 | 1.07 | 1.03 | 0.841 | 0.447
SK-MES-1 | 0.948 | 0.93 | 0.838 | 0.796 | 1.3 | 0.995 | – | 1.1 | 0.822 | 0.91 | 0.958 | 0.935 | 0.922 | 1.09 | 0.84 | 0.861 | 0.879
NCI-H2170 | 0.278 | 0.236 | 0.267 | 0.251 | 0.514 | 0.652 | 0.518 | 0.652 | 0.64 | 0.679 | 0.709 | 0.832 | 0.659 | 1.09 | 1.11 | 1.03 | 1.27

Cell Line | relative viability ([1]; first compound 0.04 µM) | relative viability ([1]; first compound 0.1265 µM) | relative viability ([1]; first compound 0.4 µM) | relative viability ([1]; first compound 1.265 µM) | relative viability ([2]; first compound 0.04 µM) | relative viability ([2]; first compound 0.1265 µM) | relative viability ([2]; first compound 0.4 µM) | relative viability ([2]; first compound 1.265 µM) | relative viability ([3]; first compound 0.01 µM) | relative viability ([3]; first compound 0.03162 µM) | relative viability ([3]; first compound 0.1 µM) | relative viability ([3]; first compound 0.3162 µM) | relative viability ([3]; first compound 1 µM) | relative viability ([4]; first compound 0.04 µM) | relative viability ([4]; first compound 0.1265 µM) | relative viability ([4]; first compound 0.4 µM) | relative viability ([4]; first compound 1.265 µM)
NCI-H2085 | 0.959 | 0.844 | 0.887 | 0.877 | 1.22 | 1.07 | 0.984 | 1.05 | 0.852 | 0.749 | 0.886 | 0.818 | 0.797 | 0.913 | 0.979 | 0.844 | 0.635
SW 1573 | 0.847 | 0.749 | 0.803 | 0.244 | 0.875 | 0.471 | 0.655 | 0.8 | 0.144 | 0.145 | 0.187 | 0.222 | 0.177 | 0.665 | 0.63 | 0.509 | 0.531
NCI-H441 | 0.246 | 0.261 | 0.243 | 0.267 | 0.363 | 0.413 | 0.116 | 0.505 | 0.675 | 0.518 | 0.66 | 0.543 | 0.578 | 0.603 | 0.704 | 0.553 | 0.527
LOU-NH91 | 0.394 | 0.409 | 0.353 | 0.346 | 0.706 | 0.77 | 0.61 | 0.686 | 0.681 | 0.621 | 0.648 | 0.658 | 0.78 | 0.736 | 0.812 | 0.667 | 0.725
NCI-H3122 | 0.202 | 0.175 | 0.178 | 0.18 | 1.05 | 1.06 | 1.06 | 1.02 | 0.301 | 0.369 | 0.409 | 0.475 | 0.452 | 0.212 | 0.2 | 0.182 | 0.222
NCI-H460 | 0.0607 | 0.0684 | 0.0535 | 0.0527 | 1.08 | 0.893 | 1.01 | 1.23 | 0.416 | 0.266 | 0.514 | 0.442 | 0.485 | 0.985 | 0.699 | 0.639 | 0.331
NCI-H1734 | 0.418 | 0.338 | 0.404 | 0.381 | 0.834 | 0.593 | 0.661 | 0.731 | 0.312 | 0.253 | – | 0.25 | 0.254 | 0.554 | 0.51 | 0.358 | 0.509
LXF-289 | 0.9 | 0.921 | 0.804 | 0.859 | 0.987 | 0.917 | 0.941 | 0.991 | 0.228 | 0.182 | 0.184 | 0.27 | 0.212 | 0.837 | 0.806 | 0.751 | 0.714
H3255 | 0.602 | 0.523 | 0.528 | 0.484 | 0.684 | 0.463 | 0.49 | 0.36 | 0.549 | 0.671 | 0.742 | 0.513 | 0.608 | 0.865 | 0.979 | 0.793 | 0.924
201T | 0.324 | 0.285 | 0.294 | 0.304 | 1.15 | 1.09 | 1.11 | 1.16 | 0.888 | 0.833 | 1.05 | 0.923 | 0.97 | 0.993 | 0.943 | 0.933 | 0.973
NCI-H2126 | 0.622 | 0.463 | 0.379 | 0.465 | 0.669 | 0.725 | 0.591 | 0.761 | 0.883 | 0.922 | 0.915 | 0.855 | 0.867 | 0.923 | 0.845 | 0.672 | 0.98
HOP-62 | 0.294 | 0.297 | 0.315 | 0.341 | 1.12 | 0.887 | 0.826 | 1.03 | 0.369 | 0.306 | 0.412 | 0.388 | 0.395 | 0.896 | 0.96 | 0.888 | 0.981
CAL-12T | 0.818 | 0.999 | 0.777 | 0.812 | 1.18 | 1.16 | 1.14 | 1.06 | 0.348 | 0.254 | 0.351 | 0.384 | 0.371 | 0.509 | 0.487 | 0.346 | 0.161
NCI-H520 | 0.661 | 0.529 | 0.581 | 0.615 | 1.16 | 0.988 | 1.04 | 1.11 | 0.37 | 0.371 | 0.453 | 0.45 | 0.447 | 0.802 | 0.499 | 0.618 | 0.636
NCI-H1755 | 0.444 | 0.408 | 0.39 | 0.377 | 1 | 0.864 | 0.913 | 0.971 | 0.498 | 0.588 | 0.568 | 0.652 | 0.537 | 0.919 | 0.793 | 0.756 | 0.836
NCI-H2023 | 0.252 | 0.137 | 0.152 | 0.0911 | 0.89 | 0.703 | 0.654 | 0.702 | 0.379 | 0.309 | 0.346 | 0.325 | 0.286 | 0.467 | 0.424 | 0.318 | 0.119
NCI-H2009 | 1.07 | 1.01 | 1.01 | 1.03 | 1.26 | 1.23 | 1.11 | 1.29 | 0.731 | 0.705 | 0.747 | 0.691 | 0.721 | 1.06 | 1.01 | 0.966 | 0.541

Source: the supplement of paper PMC10307832
